In patent US12029738B2, “Antiproliferative compounds and methods of use thereof” (Celgene Corporation, priority 2017, dated 2024):
Entries after “also recorded” stand apart in the source; their conditions may differ.

Experiments:
[1] = test system: H929-1051 cells; test: Cell apoptosis assay (Caspase-3 live cell imaging); format: cell-based, human
Description: FIG. 1A and FIG. 1B. (FIG. 1A) Change in apoptosis induction, as measured by area under the curve of Caspase 3 fold induction (aka apoptosis index) over time in lenalidomide resistant H929-1051 cells. Abscissa: log nM (compound), ordinate: apoptosis index. The lines of best fit are a 3-parameter logistic equation calculated in GraphPad Prism. (FIG. 1B) The area under the curve of the concentration-response curves for Compound 1 and Compound A in H929-1051 cells were used to compare the compounds' ability to induce apoptosis after a 6 h exposure and then dilution resulting in about a 20-fold reduction of compound concentration.
Cell Apoptosis Assays: The ability of the compounds to induce apoptosis was assessed in selected MM cell lines at the time points and compound concentrations indicated. As a marker of apoptosis, the level of Caspase-3 activity was measured in MM cells using live cell imaging. To image suspension cells, 96-well plates were coated with fibronectin so cells would adhere and lie flat on the bottom of the plate. Cells were added to 96-well plates using a Multidrop Combi Reagent Dispenser (Thermo Scientific, Waltham, MA) the night before compound addition. […] Cleavage of the Caspase-3 enzyme substrate and cellular confluence in each well was detected via imaging at 10× on the IncuCyte ZOOM System every 4-6 h for 5 days. […]
Compound 1 Induced Apoptosis in Multiple Myeloma Cell Lines. […] To determine the ability of compounds to induce apoptosis and to characterize kinetically the onset of this process, Caspase-3 induction was measured over time in lenalidomide-resistant, H929-1051 cells (FIG. 1A and FIG. 1B). H929-1051 cells were incubated with the compounds at concentrations of 1 nM, 10 nM, 100 nM and 1000 nM and apoptosis was assessed over time. […] Next, the area under the curve (AUC) was calculated for each concentration and used to generate the concentration-response curves for each compound. This provided quantitative evidence of the ability of Compound 1 to induce apoptosis in H929-1051.

[2] = in vivo; settings: male, CD-IGS, rat, po
Description: 7-Day Exploratory Toxicology Studies in Male Rats. Methods. Male CD-IGS rats (n=5/group for toxicologic assessment; n=4/group for toxicokinetic assessment) were dosed once daily by oral gavage (10 mL/kg) with vehicle (0.5% HPMC/0.25% Tween-80 in 50 mM citrate, pH 2.6-2.8) or test articles (Compound A or Compound 1) at 100, 300 or 1000 mg/kg/day for 7 consecutive days. Blood samples for toxicokinetics were collected on Days 1 and 7. […] Body weight was recorded at randomization, prior to dosing on Days 1-7 and prior to necropsy. Samples for hematology and serum chemistry analyses were collected on Day 8, approximately 24 h after the last dose. Rats were euthanized on Day 8 for necropsy. Anatomic pathology evaluation consisted of gross observation, organ weight and histopathologic examination of select tissues.

[3] = molecular target: T1, CYP1A2 (Homo sapiens, UniProt P05177); test: CYP inhibition in pooled human liver microsomes; format: in vitro ADME; settings: up to 30 μM
T1 construct: from tissue; host or cells: pooled human liver microsomes
Description: (§1) Methods. […] In addition, the compounds were evaluated for their potential to act as a time-dependent inhibitors at the same concentrations mentioned above. […] In addition to appropriate vehicle controls, known direct inhibitors and time-dependent inhibitors of CYP isoforms were included as positive controls. Following the incubation, concentrations of probe substrate metabolites were quantified using established LC/MS/MS methods. The extent of inhibition was expressed as the percentage of control activity.

[4] = molecular target: T2, CYP2A6 (Homo sapiens, UniProt P11509); test: CYP inhibition in pooled human liver microsomes; format: in vitro ADME; settings: up to 30 μM
T2 construct: from tissue; host or cells: pooled human liver microsomes
Description: as §1

[5] = molecular target: T3, CYP2C8 (Homo sapiens, UniProt P10632); test: CYP inhibition in pooled human liver microsomes; format: in vitro ADME; settings: up to 30 μM
T3 construct: from tissue; host or cells: pooled human liver microsomes
Description: as §1

[6] = molecular target: T4, CYP2D6 (Homo sapiens, UniProt P10635); test: CYP inhibition in pooled human liver microsomes; format: in vitro ADME; settings: up to 30 μM
T4 construct: from tissue; host or cells: pooled human liver microsomes
Description: as §1

[7] = molecular target: T5, CYP2E1 (Homo sapiens, UniProt P05181); test: CYP inhibition in pooled human liver microsomes; format: in vitro ADME; settings: up to 30 μM
T5 construct: from tissue; host or cells: pooled human liver microsomes
Description: as §1

[8] = test system: neutrophil progenitors (bone marrow CD34+ cells from healthy donors); test: Ex vivo maturation of myeloid progenitors to adult neutrophils
Description: Methods: Ex vivo cultures of bone marrow (BM) CD34^+ cells from healthy donors (HD) were used to investigate neutrophil-specific ex vivo maturation. In vitro differentiation of neutrophil progenitors was induced by adding stem cell factor (SCF), fins-related tyrosine kinase 3 ligand (Flt3-L), and granulocyte colony stimulating factor (G-CSF) to culture media. Cell differentiation was evaluated by flow cytometry as the percentage of cells in 5 subpopulations: hematopoietic stem cells (HSC, CD34^+/CD33^−/CD11b^−) and Stage I (CD34^+/CD33^+/CD11b^−), Stage II (CD34^−/CD33^+/CD11b^−), Stage III (CD34^−/CD33^+/CD11b^+), and Stage IV (CD34^−/CD33^−/CD11b^+) (from immature to mature), as shown in FIG. 7. The effects of Compound 2 on maturation of neutrophil progenitors were assessed and different dosing schedules were evaluated to gain insight into the schedule dependence of these events.
Longer Daily Compound 2 Exposures. To further characterize the potential impacts of different schedules on arrest of neutrophil progenitor maturation and subsequent recovery, changes in the relative proportions of each of the aforementioned stages of myeloid progenitor […] CD34^+ BM cells derived from healthy donors were exposed to Compound 2 on 3 or 5 consecutive days starting on Day 10 for 6 h (Donors No. 1 and 2) or for 24 h (Donors No. 3 and 4) each day. […]

[9] = 30 minute preincubation with or without NADPH

T5 sequence (P05181 whole entry): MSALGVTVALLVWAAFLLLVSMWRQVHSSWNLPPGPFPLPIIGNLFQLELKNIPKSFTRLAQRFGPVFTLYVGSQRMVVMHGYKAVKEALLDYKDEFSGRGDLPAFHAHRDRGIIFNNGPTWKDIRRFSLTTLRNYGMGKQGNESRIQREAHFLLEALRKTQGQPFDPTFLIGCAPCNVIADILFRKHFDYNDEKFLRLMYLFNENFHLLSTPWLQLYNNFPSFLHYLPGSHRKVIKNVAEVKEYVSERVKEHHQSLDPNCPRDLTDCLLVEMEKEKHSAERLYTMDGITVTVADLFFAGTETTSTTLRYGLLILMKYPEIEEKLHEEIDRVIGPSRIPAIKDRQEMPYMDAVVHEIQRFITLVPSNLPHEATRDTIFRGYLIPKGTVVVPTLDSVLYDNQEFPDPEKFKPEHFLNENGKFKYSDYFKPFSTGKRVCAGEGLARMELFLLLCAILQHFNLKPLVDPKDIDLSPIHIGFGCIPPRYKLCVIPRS
T3 sequence (P10632 whole entry): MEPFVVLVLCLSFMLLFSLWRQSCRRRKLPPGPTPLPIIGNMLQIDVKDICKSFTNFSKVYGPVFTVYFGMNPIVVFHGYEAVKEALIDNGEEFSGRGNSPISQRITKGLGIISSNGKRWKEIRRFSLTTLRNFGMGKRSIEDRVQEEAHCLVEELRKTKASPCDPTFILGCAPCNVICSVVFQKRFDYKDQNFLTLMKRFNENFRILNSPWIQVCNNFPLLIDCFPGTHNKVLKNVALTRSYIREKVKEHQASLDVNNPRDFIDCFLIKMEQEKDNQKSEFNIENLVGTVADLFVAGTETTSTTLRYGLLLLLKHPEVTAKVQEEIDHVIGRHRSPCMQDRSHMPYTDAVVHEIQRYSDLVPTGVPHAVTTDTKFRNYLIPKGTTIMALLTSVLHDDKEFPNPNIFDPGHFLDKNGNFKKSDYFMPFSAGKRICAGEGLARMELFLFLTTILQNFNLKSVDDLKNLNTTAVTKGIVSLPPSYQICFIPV
T2 sequence (P11509 whole entry): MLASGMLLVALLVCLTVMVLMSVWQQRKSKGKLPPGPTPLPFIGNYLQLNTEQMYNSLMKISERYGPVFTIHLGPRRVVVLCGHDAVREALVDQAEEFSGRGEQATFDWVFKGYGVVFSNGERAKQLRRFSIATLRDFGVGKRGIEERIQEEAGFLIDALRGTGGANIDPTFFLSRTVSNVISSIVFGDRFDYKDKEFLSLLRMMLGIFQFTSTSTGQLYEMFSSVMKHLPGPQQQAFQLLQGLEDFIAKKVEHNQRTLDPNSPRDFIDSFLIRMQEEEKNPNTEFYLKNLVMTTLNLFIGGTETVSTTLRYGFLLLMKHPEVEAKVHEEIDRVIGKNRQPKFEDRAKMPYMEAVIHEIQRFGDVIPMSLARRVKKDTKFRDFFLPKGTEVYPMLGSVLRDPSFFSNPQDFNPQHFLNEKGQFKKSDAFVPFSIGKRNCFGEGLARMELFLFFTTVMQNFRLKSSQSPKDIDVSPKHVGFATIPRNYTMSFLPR
T1 sequence (P05177 whole entry): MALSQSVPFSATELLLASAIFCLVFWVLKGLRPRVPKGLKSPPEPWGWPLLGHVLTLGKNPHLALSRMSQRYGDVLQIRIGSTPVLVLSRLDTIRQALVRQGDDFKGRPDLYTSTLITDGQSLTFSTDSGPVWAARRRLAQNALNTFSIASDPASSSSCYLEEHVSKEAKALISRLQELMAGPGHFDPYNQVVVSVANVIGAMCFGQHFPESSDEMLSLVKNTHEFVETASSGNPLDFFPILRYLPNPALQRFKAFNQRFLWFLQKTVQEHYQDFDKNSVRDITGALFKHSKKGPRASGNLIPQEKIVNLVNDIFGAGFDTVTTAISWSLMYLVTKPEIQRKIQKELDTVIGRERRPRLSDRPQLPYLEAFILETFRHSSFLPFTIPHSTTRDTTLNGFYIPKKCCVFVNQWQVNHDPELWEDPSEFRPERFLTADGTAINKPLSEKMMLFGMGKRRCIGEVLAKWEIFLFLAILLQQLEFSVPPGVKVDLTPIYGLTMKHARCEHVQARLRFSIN
T4 sequence (P10635 whole entry): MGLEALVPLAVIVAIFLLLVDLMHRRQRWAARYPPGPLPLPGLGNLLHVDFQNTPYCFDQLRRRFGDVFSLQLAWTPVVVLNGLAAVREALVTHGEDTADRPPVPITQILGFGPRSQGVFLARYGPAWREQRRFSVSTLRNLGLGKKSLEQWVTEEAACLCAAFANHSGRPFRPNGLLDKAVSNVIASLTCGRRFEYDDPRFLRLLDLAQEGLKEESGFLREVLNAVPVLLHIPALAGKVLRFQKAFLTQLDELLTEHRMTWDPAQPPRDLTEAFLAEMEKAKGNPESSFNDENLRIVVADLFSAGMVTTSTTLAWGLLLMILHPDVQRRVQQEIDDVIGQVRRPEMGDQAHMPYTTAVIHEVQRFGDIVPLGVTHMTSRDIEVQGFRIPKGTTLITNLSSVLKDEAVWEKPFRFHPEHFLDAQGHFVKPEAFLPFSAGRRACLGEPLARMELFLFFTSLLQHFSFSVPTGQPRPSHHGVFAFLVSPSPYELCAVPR

N#Cc1ccc(N2CCN(Cc3ccc(COc4cccc5c4CN(C4CCC(=O)NC4=O)C5=O)cc3)CC2)c(F)c1 (racemic) [Compound 1, 4-(4-(4-(((2-(2,6-dioxopiperidin-3-yl)-1-oxoisoindolin-4-yl)oxy)methyl)benzyl)piperazin-1-yl)-3-fluorobenzonitrile]
time of near maximal apoptosis induction ([1]; 1-1000 nM): ~72 h
time at which apoptosis induction begins ([1]; 1-1000 nM, all concentrations): around 48 h
apoptotic induction (total AUC) compared to Compound A ([1]; 6 h exposure then about 20-fold dilution, relative to Compound A): 126%
AUC(0-t) ([2]; 100 mg/kg/day): 143 µM·h
AUC(0-t) ([2]; 300 mg/kg/day): 514 µM·h
AUC(0-t) ([2]; 1000 mg/kg/day): 1220 µM·h
dose at which minimal decreases in body weight gain were observed ([2]; 7 days): ≥ 300 mg/kg

O=C1CC[C@H](N2Cc3c(OCc4ccc(CN5CCN(c6ccc(F)cc6F)CC5)cc4)cccc3C2=O)C(=O)N1 [Compound B]
time-dependent inhibition of CYP1A2 [3, 9]: little to no time-dependent inhibition; also recorded: not a time-dependent inhibitor
direct inhibition of CYP1A2 ([3]; human liver microsomes): up to 30%
time-dependent inhibition of CYP2A6 [4, 9]: little to no time-dependent inhibition; also recorded: not a time-dependent inhibitor
direct inhibition of CYP2A6 ([4]; human liver microsomes): up to 30%
time-dependent inhibition of CYP2C8 [5, 9]: little to no time-dependent inhibition; also recorded: not a time-dependent inhibitor
direct inhibition of CYP2C8 ([5]; human liver microsomes): up to 30%
time-dependent inhibition of CYP2D6 [6, 9]: little to no time-dependent inhibition; also recorded: not a time-dependent inhibitor
direct inhibition of CYP2D6 ([6]; human liver microsomes): up to 30%
time-dependent inhibition of CYP2E1 [7, 9]: little to no time-dependent inhibition; also recorded: not a time-dependent inhibitor
direct inhibition of CYP2E1 ([7]; human liver microsomes): up to 30%

N#Cc1ccc(N2CCN(Cc3ccc(COc4cccc5c4CN([C@H]4CCC(=O)NC4=O)C5=O)cc3)CC2)c(F)c1 [Compound 2, (S)-4-(4-(4-(((2-(2,6-dioxopiperidin-3-yl)-1-oxoisoindolin-4-yl)oxy)methyl)benzyl)piperazin-1-yl)-3-fluorobenzonitrile]
loss of viability [8]: no loss of viability was observed
late-stage maturation of neutrophil progenitors ([8]; 1, 10, 100 nM, 2, 4, 6 h exposures for up to 3 consecutive days): blocked
